# Data as given in patent US20090275557A1, “Novel Composition for Treatment of Diseases Related to Activated Lymphocytes” (Immune Control, Inc., priority 2008, published 2009).
# Values joined by “and” are separate entries in the source; they are usually repeats but may differ in a detail not shown here. Equal values may be shown once. Read-outs that look alike come from different tables or passages of the source.
# Test: Pharmacokinetic study, oral gavage in fasted male Sprague-Dawley rats
# Format: in vivo, rat
# Settings: for dose absorbed after oral dosing: indirectly indicated by the average bioavailability, oral 10 mg/kg
# Procedure: ICI-1259 and ICI-1260 were supplied as powders and stored frozen until used. Dosing solutions in phosphate buffered saline were prepared at 1 mg/ml. These solutions were then evaluated in fasted male Sprague-Dawley rats. The rats were fitted with a jugular vein cannula for blood sampling. Rats were also fitted with an additional jugular vein cannula, or intradudodenal cannula as needed. Rats were given a commercial rodent diet ad libitum prior to study initiation. Food was then withheld from the animals for a minimum of twelve hours prior to dosing, until four hours postdose when food was returned. Water was supplied ad libitum. Three rats were used in each study, unless otherwise indicated.
# For both ICI-1259 and ICI-1260, rats were given a 10 mg/kg dose from a 1 mg/ml solution. The appropriate volume of solution was given as a single bolus dose at time zero on the day of dosing. Blood samples were taken at predose, 5 minutes after dosing, 10 minutes after dosing, 15 minutes after dosing, 30 minutes after dosing, 1 hour after dosing, 2 hours after dosing, 4 hours after dosing, 6 hours after dosing, and 8 hours after dosing.
# [1] = individual rats, oral gavage 10 mg/kg, 10 mg/kg
# [2] = individual rats, oral gavage 10 mg/kg, 0.25 hr, 10 mg/kg
# [3] = individual rats, oral gavage 10 mg/kg, 0.50 hr, 10 mg/kg
# [4] = individual rats, oral gavage 10 mg/kg, 1.0 hr, 10 mg/kg
# [5] = individual rats, oral gavage 10 mg/kg, 2.0 hr, 10 mg/kg
# [6] = individual rats, oral gavage 10 mg/kg, 4.0 hr, 10 mg/kg
# [7] = individual rats, oral gavage 10 mg/kg, 6.0 hr, 10 mg/kg
# [8] = individual rats, oral gavage 10 mg/kg, 8.0 hr, 10 mg/kg
# [9] = individual rats, oral gavage 10 mg/kg, dose normalized AUC divided by average intravenous AUC, 10 mg/kg
# [10] = male, Sprague-Dawley, rat, plasma, po, 10 mg/kg, individual rats, oral gavage 10 mg/kg
# [11] = male, Sprague-Dawley, rat, plasma, po, 10 mg/kg, individual rats, oral gavage 10 mg/kg, 2.0 hr
# [12] = male, Sprague-Dawley, rat, plasma, po, 10 mg/kg, individual rats, oral gavage 10 mg/kg, 8.0 hr
# [13] = male, Sprague-Dawley, rat, plasma, po, 10 mg/kg, individual rats, oral gavage 10 mg/kg, dose normalized AUC divided by average intravenous AUC, read-out: Bioavailability
# [14] = male, Sprague-Dawley, rat, plasma, po, 10 mg/kg, individual rats, oral gavage 10 mg/kg, read-out: Cmax
# [15] = male, Sprague-Dawley, rat, plasma, po, 10 mg/kg, individual rats, oral gavage 10 mg/kg, read-out: tmax
# [16] = male, Sprague-Dawley, rat, plasma, po, 10 mg/kg, mean (average), oral gavage 10 mg/kg, read-out: Bioavailability
# [17] = male, Sprague-Dawley, rat, plasma, po, 10 mg/kg, mean, oral gavage 10 mg/kg
# [18] = male, Sprague-Dawley, rat, plasma, po, 10 mg/kg, mean, oral gavage 10 mg/kg, 0.25 hr
# [19] = male, Sprague-Dawley, rat, plasma, po, 10 mg/kg, mean, oral gavage 10 mg/kg, 0.50 hr
# [20] = male, Sprague-Dawley, rat, plasma, po, 10 mg/kg, mean, oral gavage 10 mg/kg, 1.0 hr
# [21] = male, Sprague-Dawley, rat, plasma, po, 10 mg/kg, mean, oral gavage 10 mg/kg, 2.0 hr
# [22] = male, Sprague-Dawley, rat, plasma, po, 10 mg/kg, mean, oral gavage 10 mg/kg, 4.0 hr
# [23] = male, Sprague-Dawley, rat, plasma, po, 10 mg/kg, mean, oral gavage 10 mg/kg, 6.0 hr
# [24] = male, Sprague-Dawley, rat, plasma, po, 10 mg/kg, mean, oral gavage 10 mg/kg, 8.0 hr
# [25] = male, Sprague-Dawley, rat, plasma, po, 10 mg/kg, mean, oral gavage 10 mg/kg, read-out: Cmax
# [26] = male, Sprague-Dawley, rat, plasma, po, 10 mg/kg, mean, oral gavage 10 mg/kg, read-out: tmax
smiles,measurement,setting,value
"CNCC(=O)NCCCN1CCC(CCCN2c3ccccc3Sc3ccc(C(F)(F)F)cc32)CC1 [ICI-1259, 2-(methylamino)-N-(3-(4-(3-(2-(trifluoromethyl)-10H-phenothiazin-10-yl)propyl)piperidin-1-yl)propyl)acetamide]",dose absorbed after oral dosing,,approximately 38%
same,AUClast,[1],98.7 ng·h/mL and 74.2 ng·h/mL
same,Cmax,[1],28.4 ng/mL and 24.3 ng/mL
same,Dose Normalized AUClast,[1],6.52 kg·ng·h/mL/mg and 9.87 kg·ng·h/mL/mg and 7.42 kg·ng·h/mL/mg
same,Plasma concentration,"individual rats, oral gavage 10 mg/kg, 0.083 hr, BLOQ = below limit of quantitation (1 ng/mL)",BLOQ
same,Plasma concentration,[2],1.10 ng/mL and 3.38 ng/mL and 4.62 ng/mL
same,Plasma concentration,[3],1.56 ng/mL and 3.45 ng/mL and 5.39 ng/mL
same,Plasma concentration,[4],5.21 ng/mL and 17.6 ng/mL and 4.81 ng/mL
same,Plasma concentration,[5],28.4 ng/mL and 24.3 ng/mL
same,Plasma concentration,[6],7.49 ng/mL and 7.34 ng/mL
same,Plasma concentration,[7],10.8 ng/mL and 6.73 ng/mL
same,Plasma concentration,[8],4.35 ng/mL and 3.04 ng/mL
same,bioavailability,[9],17% and 13%
same,AUC(0-t),[10],65.2 ng·h/mL
same,concentration at 2 hr,[11],16.6 ng/mL
same,concentration at 4 hr,"male, Sprague-Dawley, rat, plasma, po, 10 mg/kg, individual rats, oral gavage 10 mg/kg, 4.0 hr",8.31 ng/mL
same,concentration at 6 hr,"male, Sprague-Dawley, rat, plasma, po, 10 mg/kg, individual rats, oral gavage 10 mg/kg, 6.0 hr",7.85 ng/mL
same,concentration at 8 hr,[12],3.28 ng/mL
same,bioavailability,[13],11%
same,Cmax,[14],16.6 ng/mL
same,Tmax,[15],2 h
same,bioavailability,[16],14%
same,AUC(0-t),[17],79.4 ng·h/mL
same,concentration at 0.25 hr,[18],3.03 ng/mL
same,concentration at 0.5 hr,[19],3.47 ng/mL
same,concentration at 1 hr,[20],9.21 ng/mL
same,concentration at 2 hr,[21],23.1 ng/mL
same,concentration at 4 hr,[22],7.71 ng/mL
same,concentration at 6 hr,[23],8.46 ng/mL
same,concentration at 8 hr,[24],3.56 ng/mL
same,Cmax,[25],23.1 ng/mL
same,Tmax,[26],2 h
same,Dose Normalized AUClast,"mean, oral gavage 10 mg/kg",7.94 kg·ng·h/mL/mg
"NCC(=O)NCCCN1CCC(CCCN2c3ccccc3Sc3ccc(C(F)(F)F)cc32)CC1 [ICI-1260, 2-amino-N-(3-(4-(3-(2-(trifluoromethyl)-10H-phenothiazin-10-yl)propyl)piperidin-1-yl)propyl)acetamide]",dose absorbed after oral dosing,,approximately 26%
same,AUClast,[1],84.9 ng·h/mL and 95.9 ng·h/mL
same,Cmax,[1],22.2 ng/mL and 25.9 ng/mL
same,Dose Normalized AUClast,[1],11.2 kg·ng·h/mL/mg and 8.49 kg·ng·h/mL/mg and 9.59 kg·ng·h/mL/mg
same,Dose Normalized AUC∞,[1],9.40 kg·ng·h/mL/mg and 11.1 kg·ng·h/mL/mg
same,Tmax,[1],1.0 h
same,t1/2,[1],2.6 h
same,Plasma concentration,"individual rats, oral gavage 10 mg/kg, 0.083 hr, BLOQ = below limit of quantitation (1 ng/mL), 10 mg/kg",1.33 ng/mL and BLOQ
same,Plasma concentration,[2],9.32 ng/mL and 2.68 ng/mL and 7.31 ng/mL
same,Plasma concentration,[3],8.00 ng/mL and 3.02 ng/mL and 6.16 ng/mL
same,Plasma concentration,[4],5.33 ng/mL and 5.38 ng/mL and 25.9 ng/mL
same,Plasma concentration,[5],22.2 ng/mL and 24.0 ng/mL
same,Plasma concentration,[6],4.89 ng/mL and 11.7 ng/mL and 7.39 ng/mL
same,Plasma concentration,[7],19.8 ng/mL and 9.71 ng/mL and 8.98 ng/mL
same,Plasma concentration,[8],2.87 ng/mL and 3.93 ng/mL
same,bioavailability,[9],9.0%
same,AUC∞,"individual rats, oral gavage 10 mg/kg, extrapolated to infinity, 10 mg/kg",111 ng·h/mL
same,AUC(0-t),[10],112 ng·h/mL
same,half-life,[10],2.2 h
same,concentration at 0.083 hr,"male, Sprague-Dawley, rat, plasma, po, 10 mg/kg, individual rats, oral gavage 10 mg/kg, 0.083 hr, BLOQ = below limit of quantitation (1 ng/mL)",1.48 ng/mL
same,concentration at 2 hr,[11],33.8 ng/mL
same,concentration at 8 hr,[12],3.13 ng/mL
same,bioavailability,[13],13%
same,AUC(0-inf),"male, Sprague-Dawley, rat, plasma, po, 10 mg/kg, individual rats, oral gavage 10 mg/kg, extrapolated to infinity",94 ng·h/mL
same,Cmax,[14],33.8 ng/mL
same,Tmax,[15],2 h
same,bioavailability,[16],11%
same,AUC(0-t),[17],97.7 ng·h/mL
same,half-life,[17],2.4 h
same,concentration at 0.083 hr,"male, Sprague-Dawley, rat, plasma, po, 10 mg/kg, mean, oral gavage 10 mg/kg, 0.083 hr",1.41 ng/mL
same,concentration at 0.25 hr,[18],6.44 ng/mL
same,concentration at 0.5 hr,[19],5.73 ng/mL
same,concentration at 1 hr,[20],12.2 ng/mL
same,concentration at 2 hr,[21],26.7 ng/mL
same,concentration at 4 hr,[22],7.99 ng/mL
same,concentration at 6 hr,[23],12.8 ng/mL
same,concentration at 8 hr,[24],3.31 ng/mL
same,AUC(0-inf),"male, Sprague-Dawley, rat, plasma, po, 10 mg/kg, mean, oral gavage 10 mg/kg, extrapolated to infinity",102 ng·h/mL
same,Cmax,[25],27.3 ng/mL
same,Tmax,[26],1.7 h
same,Dose Normalized AUClast,"mean, oral gavage 10 mg/kg",9.77 kg·ng·h/mL/mg
same,Dose Normalized AUC∞,"mean, oral gavage 10 mg/kg",10.2 kg·ng·h/mL/mg
